Consider five molecules from patent publication US20230140132A1, “ARGINASE INHIBITORS AND METHODS OF USE” (MERCK SHARP & DOHME LLC, priority 2020, published 2023).

One test concerns the target T1, Arginase (Homo sapiens, UniProt P05089).
T1 sequence (P05089 1-322): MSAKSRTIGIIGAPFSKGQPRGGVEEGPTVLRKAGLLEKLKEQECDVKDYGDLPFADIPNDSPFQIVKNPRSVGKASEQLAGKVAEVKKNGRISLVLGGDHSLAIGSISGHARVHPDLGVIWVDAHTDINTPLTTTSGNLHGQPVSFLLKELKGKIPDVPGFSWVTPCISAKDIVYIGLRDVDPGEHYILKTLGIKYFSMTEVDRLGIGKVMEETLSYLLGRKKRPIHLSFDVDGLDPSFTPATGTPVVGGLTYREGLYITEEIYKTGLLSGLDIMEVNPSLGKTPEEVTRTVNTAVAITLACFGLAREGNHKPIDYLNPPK
The test is described as follows: Arginase Thioornithine Generating Assay (TOGA). The format is biochemical. The note with it: recombinant arginase 1.88 nM, thioarginine substrate, fluorescence readout. Here is the method: Compounds were serially diluted in ten 3-fold steps in DMSO starting from 10 mM DMSO stocks. Compound dilutions or DMSO alone were then dispensed from the dilution plate into a Greiner black 384-well assay plate (catalog #781086) using an Echo 555 acoustic liquid handler (Labcyte).
Arginase protein was recombinantly expressed in Escherichia coli. Purified protein was then diluted in assay buffer (50 mM Tris pH 7.5, 50 mM NaCl, 1 mM manganese chloride, 0.05% bovine serum albumin to obtain a final Arginase concentration of 1.88 nM. Arginase solution (20 μL) or buffer alone (20 μL) were dispensed to wells of the assay plate using a BioRAPTR liquid dispenser (Beckman Coulter). Assay plates containing compound and arginase enzyme were incubated at room temperature for 30 minutes. Afterwards, 5 μL of 2.5 mM thioarginine (Cayman Chemicals) in assay buffer were added to each well of the assay plate using a BioRAPTR liquid dispenser. Plates were incubated at room temperature for 60 minutes and reactions were quenched by addition of 15 μL of 200 uM 7-Diethylamine-3-(4-maleimidophenyl)-4-methylcoumarin (Sigma Chemical) in 70% ethanol. Plates were briefly shaken to mix and the fluorescence was measured in an Spectramax plate reader (Molecular Devices) with a 410 nm excitation wavelength and an 490 nm emission wavelength.
Potencies were calculated by […] to the four parameter logistic IC50 equation.

For test [1], the system named is opossum internal anal sphincter muscle. The conditions noted are these: Baggio et al. 1999; cited from earlier work.
Test [2] deals with corpus cavernosum of the diabetic person. The note with it: ex vivo, Bivalacqua et al. 2001; cited from earlier work.
The subject of test [3] is airway hyperresponsiveness. The conditions noted are these: guinea pigs, nebulizer treatment, allergic asthma model; cited from earlier work.
Test [4] concerns rabbit and human penile corpus cavernosum. The note with it: Cox et al. 1999; cited from earlier work.
The subject of test [5] is engorgement response in the genitalia. The note with it: live female rabbits; Cama et al. 2003; cited from earlier work.
The subject of test [6] is experimental autoimmune encephalomyelitis. The note with it: Xu et al. 2003; cited from earlier work.
Another test has as its system erectile response. The conditions noted are these: live male rabbits; Cama et al. 2003; cited from earlier work.

Turning to `C[C@]1(CCCB(O)O)[C@@H](C(=O)O)N[C@H]2C[C@H]21` [Example 24, (1S,3S,4R,5S)-4-(3-boronopropyl)-4-methyl-2-azabicyclo[3.1.0]hexane-3-carboxylic Acid], on Arginase, the concentration for half-maximal inhibition (IC50) turned out to be 5740 nM.

For `N[C@@H](CCCCB(O)O)C(=O)O` [ABH, (S)-2-amino-6-boronohexanoic acid], the “relaxation of internal anal sphincter muscle” value in test [1] is reported as “relax this muscle”. The nitric oxide biosynthesis entry in test [2] was “restores nitric oxide biosynthesis”. Besides, the airway hyperresponsiveness entry in test [3] is “prevents airway hyperresponsiveness”. Also, the “nitric oxide-dependent relaxation of corpus cavernosum tissue” value in test [4] is “enhances the nitric oxide-dependent relaxation of this tissue”. In addition, the “engorgement response in the genitalia” value in test [5] is “enhances the engorgement response”. For the same molecule, the disease score result in test [6] is given as “improves the disease score of animals”. The erectile response entry in the test with erectile response was “enhances the erectile response”.

In the case of `C[C@]1(CCCB(O)O)[C@@H](C(=O)O)N[C@@H]2CC[C@@H]21` [Example 17, (1R,3S,4R,5R)-4-(3-boronopropyl)-4-methyl-2-azabicyclo[3.2.0]heptane-3-carboxylic Acid], the IC50 on Arginase was found to be 66.5 nM.

In the case of `O=C(O)[C@H]1NC[C@@H]2NCC[C@@]21CCCB(O)O` [Example 1, (3aS,4S,6aR)-3a-(3-boronopropyl)octahydropyrrolo[3,4-b]pyrrole-4-carboxylic Acid], the IC50 at Arginase was 1.61 nM.

Consider `O=C(O)[C@H]1NC[C@@H]2NC[C@@]21CCCB(O)O` [Example 34, (1S,2S,5R)-1-(3-boronopropyl)-3,6-diazabicyclo[3.2.0]heptane-2-carboxylic Acid], for which, on Arginase, the IC50 was 104 nM.

As usually defined, the IC50 is the concentration at which inhibition is half-maximal.
